In patent US7064236B2, “Substituted 1-aryl-but-3-enylamine and 1-aryl-but-2-enylamine compounds” (Grunenthal GmbH, priority 2001, dated 2006):
Where a name gives a salt, the structure may show the parent alone.

Tested on: phenylquinone-induced writhing in mice
Assay: Analgesic testing by phenylquinone-induced writhing test in mice
Format: in vivo, mouse (male NMRI mice)
Settings: 10 min, mouse, phenylquinone i.p. 10 minutes after compound, read-out: % Inhibition of writhing reaction; for inhibition in vivo at 10 mg/kg: 10 mg/kg intravenous
Experimental: Analgesic Testing by Writhing Test in Mice
The investigation into analgesic efficacy was performed by phenylquinone-induced writhing in mice (modified after: I. C. Hendershot and J. Forsaith (1959) J. Pharmacol. Exp. There. 125, 237–240). Male NMRI mice weighing from 25–30 g were used for this purpose. 10 minutes after intravenous administration of the test compounds, groups of 10 animals per dose of a compound received 0.3 ml/mouse of a 0.02% aqueous solution of phenylquinone (phenylbenzoquinone, sigma, Deisenhofen; production of the solution with addition of 5% ethanol and storage in water bath at 45° C.), administered intraperitoneally. The animals were placed individually in observation cages. A push button counter was used to record the number of pain-induced stretching movements (writhing reactions=straightening of the torso with stretching of the rear extremities) for 5–20 minutes after phenylquinone administration. The control was provided by animals who received only physiological common salt solution. All the compounds were tested at the standard dosage of 10 mg/kg. The percentage inhibition (%inhibition) of the writhing reaction by a compound of the general formula I according to the invention was calculated according to the following formula: […]
The in-depth investigation of the compounds of the general formula I according to the invention for analgesic efficacy was performed by phenylquinone-induced writhing in mice, as described above.

SMILES | inhibition in vivo at 10 mg/kg | inhibition in vivo at 21.5 mg/kg (21.5 mg/kg intravenous)
CN(C)C(C1=C(c2ccccc2)CCCC1)c1ccc(C(F)(F)F)cc1 (stereo not drawn) [Example 29, Dimethyl-[(2-phenyl-cyclohex-1-enyl)-(4-trifluoromethyl-phenyl)-methyl]-amine hydrochloride] | 40% | –
CN(C)C(c1ccccc1)C1CCCC=C1c1cccc(O)c1 (stereo not drawn) [Example 24, 3-[6-(dimethylamino-phenyl-methyl)-cyclohex-1-enyl]-phenol hydrochloride] | 76% | –
CN(C)C(C1=C(Cc2cccc(F)c2)CCCC1)c1ccccc1 (stereo not drawn) [Example 21, {[2-(3-Fluoro-benzyl)-cyclohex-1-enyl)-phenyl-methyl}-dimethyl-amine hydrochloride] | 67% | –
CN(C)C(C1=C(Cc2ccccc2F)CCCC1)c1ccccc1 (stereo not drawn) [Example 19, {[2-(2-Fluoro-benzyl)-cyclohex-1-enyl)-phenyl-methyl}-dimethyl-amine hydrochloride] | 87% | –
COc1ccc(C2=CCCCC2C(c2ccccc2)N(C)C)cc1 (stereo not drawn) [Example 27, {[2-(4-methoxy-phenyl)-cyclohex-2-enyl]-phenyl-methyl}-dimethylamine hydrochloride] | 47% | –
CN(C)C(C1=C(c2ccc(Cl)cc2)CCCC1)c1ccccc1 (stereo not drawn) [Example 28, {[2-(4-Chloro-phenyl)-cyclohex-1-enyl]-phenyl-methyl}-dimethyl-amine hydrochloride] | 71% | –
CN(C)C(C1=C(CCc2ccccc2)CCCC1)c1ccccc1 (stereo not drawn) [Example 23, Dimethyl-[(2-phenethyl-cyclohex-1-enyl)-phenyl-methyl]-amine hydrochloride] | 67% | –
CN(C)C(C1=C(Cc2cccc(C(F)(F)F)c2)CCCC1)c1ccccc1 (stereo not drawn) [Example 22, Dimethyl-{phenyl-[2-(3-trifluoromethyl-benzyl)-cyclohex-1-enyl]-methyl}-amine hydrochloride] | – | 46%
CN(C)C(C1=C(Cc2ccccc2Cl)CCCC1)c1ccccc1 (stereo not drawn) [Example 20, {[2-(2-Chloro-benzyl)-cyclohex-1-enyl]-phenyl-methyl}-dimethyl-amine hydrochloride] | 63% | –
